Read-outs that look alike come from different tables or passages of the source.

Common to all, as to format: in vivo
Data set [1] deals with Uropathogenic E. coli EC200. Nature of the data set: Murine kidney infection model, uropathogenic E. coli EC200. Particulars: Escherichia coli, po, 36 h, BALB/c mice, read-out: EC200 UTI PO, log10 reduction in CFUs in the kidney versus untreated controls.
Another data set has as its system S. aureus ATCC 13709. Briefly: Neutropenic thigh model. The note with it: neutropenic female CD-1 mice, IV, doses ranging 0.3 to 30 or 0.3 to 20 mg/kg, 24 hours post treatment. Here is the method:
Neutropenic Thigh Model Female CD-1 mice were pre-treated with cyclophosphamide to render the mice neutropenic. Mice were infected with S. aureus ATCC 13709 via injection of 0.1 ml into the right thigh muscle of each mouse. One and a half hours post infection mice were treated IV with test compounds in doses ranging from 0.3 to 30 mg/kg or 0.3 to 20 mg/kg. Four mice were treated with each drug concentration. Twenty-four hours post treatment, mice were euthanized by CO2 inhalation. The right thighs of the mice were aseptically removed, weighed, homogenized, serially diluted, and plated on TSA medium. The plates were incubated overnight at 37° C. in 5% CO2. Colony forming units per gram of thigh was calculated by enumerating the plated colonies then adjusting for serial dilutions and the weight of the thigh.

The nature of data set [2]: Pharmacokinetic studies in rats. The note with it: male Sprague Dawley rats. Put shortly: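 Fasted (18 h) male Sprague Dawley rats, 3 per group, dosed 1 mg/kg IV via jugular vein or […] by oral gavage. Ten plasma samples per route to 24 h, quantified by LC/MS/MS with internal standard. AUC, Cmax, CL, Vss and %F reported ±SD.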
In data set [3] the test system is S. aureus Smith (ATCC 13709). Briefly: Mouse systemic infection (septicemia) model, S. aureus Smith. The note with it: Staphylococcus aureus, CD-1 female mice; for ED50: ATCC13709, dose that prevents 50% of the mice from death, 48 hours. Summed up: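 Female CD-1 mice (18-22 g) infected IP with an inoculum lethal to all within 24–48 h. Compound given 1 h post-infection IV ([…]) or PO ([…]), typically six mice per dose group; survival followed for 48 h and PD50 (mg/kg) derived from 48 h survival.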

For the compound `CN(C)[C@@H]1C(O)=C(C(N)=O)C(=O)[C@@]2(O)C(O)=C3C(=O)c4c(O)cc(CN(C)C(C)(C)C)c(F)c4C[C@H]3C[C@@H]12` [Compound S2-4-25], the log reduction at 2 mg/kg in data set [1] (PO 2 mg/kg at 12 and 24 hours post infection) came out at 2.78. Moreover, the log reduction at 3 mg/kg in data set [1] (PO @ 3 mpk) worked out at 3.63. Moreover, the “log10 REDUCTION in colony forming units versus untreated control group (thigh)” value with S. aureus ATCC 13709 amounted to 4.1 log10. Moreover, the “12 h urine, IV Rat PK” value in data set [2] (IV 1 mg/kg, urine, 12 h) worked out at 12 h urine 11 ug/mL. The clearance in data set [2] (rat, plasma, fasted, IV 1 mg/kg, read-out: Cl, IV Rat PK) was determined as 19.4 mL/min/kg. The bioavailability (in general, dose-corrected exposure relative to a reference, in per cent) in data set [2] (rat, plasma, fasted, oral 10 mg/kg vs IV 1 mg/kg, read-out: % F (oral bioavailability), Oral Rat PK) was determined as 9.1%. For the same compound, the AUC (usually concentration integrated over time) in data set [2] (rat, fasted, IV 1 mg/kg, plasma, read-out: AUC, IV Rat PK) is 838 ng·h/mL; in data set [2] (rat, fasted, oral gavage 10 mg/kg, plasma, read-out: AUC, Oral Rat PK), 826 ng·h/mL. In addition, the Cmax (as a rule, the peak of the concentration-time curve) in data set [2] (rat, fasted, IV 1 mg/kg, plasma, read-out: Cmax, IV Rat PK) came to 214 ng/mL. Besides, the responders at 3 mg/kg in data set [3] (ATCC13709, iv, 48 h, IV 3 mg/kg one hour post infection, survival at 48 hours, read-out: SA Smith septicemia survival IV (3 mg/kg)) worked out at 100%. For the same compound, the responders at 30 mg/kg in data set [3] (ATCC13709, po, 48 h, PO 30 mg/kg one hour post infection, survival at 48 hours, read-out: SA Smith septicemia survival PO (30 mg/kg)) stood at 100%. Further, the ED50 in data set [3] (IV, read-out: SA Smith septicemia PD50 IV) turned out to be 0.35 mg/kg; in data set [3] (PO, read-out: SA Smith septicemia PD50 PO) it was 1.4 mg/kg.

These data come from patent US9315451B2, “Tetracycline compounds” (priority 2009, dated 2016).
